Reference: paper doi:10.1101/2024.08.19.608619, “Discovery of potent SARS-CoV-2 nsp3 macrodomain inhibitors uncovers lack of translation to cellular antiviral response” (bioRxiv, 2024)
Read-outs that look alike come from different tables or passages of the source.

Experiments:
ASK1(h) = biological target: T1, ASK1(h) (Homo sapiens, UniProt Q99683); assay: biochemical; design: In vitro kinase panel profiling, per cent remaining kinase activity at 10 uM; settings: atp_concentration=200, read-out: % of control remaining
T1 construct: gene MAP3K5
T1 sequence (Q99683 1-1374): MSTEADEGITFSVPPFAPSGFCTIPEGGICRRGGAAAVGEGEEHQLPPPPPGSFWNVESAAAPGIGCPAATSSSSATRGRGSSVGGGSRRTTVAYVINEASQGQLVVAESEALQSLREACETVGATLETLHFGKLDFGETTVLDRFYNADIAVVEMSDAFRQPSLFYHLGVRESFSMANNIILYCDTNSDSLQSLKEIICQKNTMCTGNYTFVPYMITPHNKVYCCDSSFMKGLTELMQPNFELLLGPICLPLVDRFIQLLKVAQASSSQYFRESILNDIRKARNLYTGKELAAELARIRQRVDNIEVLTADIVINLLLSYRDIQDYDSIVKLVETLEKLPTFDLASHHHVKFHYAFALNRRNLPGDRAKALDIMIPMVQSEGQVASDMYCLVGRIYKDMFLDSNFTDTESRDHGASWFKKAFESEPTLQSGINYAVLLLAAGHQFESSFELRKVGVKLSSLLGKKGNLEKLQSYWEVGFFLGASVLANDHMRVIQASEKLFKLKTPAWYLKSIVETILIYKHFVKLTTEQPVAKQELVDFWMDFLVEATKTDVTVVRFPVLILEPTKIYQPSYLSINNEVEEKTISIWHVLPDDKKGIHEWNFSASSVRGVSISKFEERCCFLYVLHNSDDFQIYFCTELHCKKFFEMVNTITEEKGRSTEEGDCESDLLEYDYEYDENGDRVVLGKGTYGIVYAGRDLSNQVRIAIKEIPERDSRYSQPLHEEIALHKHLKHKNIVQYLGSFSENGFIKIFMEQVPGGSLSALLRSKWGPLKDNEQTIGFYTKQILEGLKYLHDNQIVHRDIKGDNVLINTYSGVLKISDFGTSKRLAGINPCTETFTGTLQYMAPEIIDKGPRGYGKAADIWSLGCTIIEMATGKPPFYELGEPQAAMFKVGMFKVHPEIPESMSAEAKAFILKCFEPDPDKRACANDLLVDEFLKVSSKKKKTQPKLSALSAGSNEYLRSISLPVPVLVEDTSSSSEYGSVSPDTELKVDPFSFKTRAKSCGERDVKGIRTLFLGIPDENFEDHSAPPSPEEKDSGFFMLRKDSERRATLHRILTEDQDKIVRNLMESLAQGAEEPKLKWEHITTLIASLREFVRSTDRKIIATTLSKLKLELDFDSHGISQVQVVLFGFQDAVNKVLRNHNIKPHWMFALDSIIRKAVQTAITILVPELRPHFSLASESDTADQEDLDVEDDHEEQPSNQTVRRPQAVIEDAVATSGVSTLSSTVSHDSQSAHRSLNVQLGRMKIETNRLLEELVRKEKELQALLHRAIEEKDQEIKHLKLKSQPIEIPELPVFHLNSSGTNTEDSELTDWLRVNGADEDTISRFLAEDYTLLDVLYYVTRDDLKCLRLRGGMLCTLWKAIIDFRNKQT
Text: (§1) We derisk potential for off-target activity by profiling the compound in a CEREP panel, a standard secondary pharmacology assessment, as well as a kinase panel to derisk a potential hinge-binding motif in our leads, and a PARP panel to derisk activity against human […]. Reassuringly, the compounds are selective, with the only off-targets being moderate human CHRM2 and KOR receptors activity associated with ASAP-0011198.

CDK6/cyclinD3(h) = CDK6/cyclinD3(h) (Homo sapiens, UniProt Q00534); assay: biochemical; design: In vitro kinase panel profiling, per cent remaining kinase activity at 10 uM; settings: atp_concentration=200, read-out: % of control remaining
Text: as §1

PKCα(h) = biological target: T2, PKCα(h) (Homo sapiens, UniProt P17252); assay: biochemical; design: In vitro kinase panel profiling, per cent remaining kinase activity at 10 uM; settings: atp_concentration=45, read-out: % of control remaining
T2 construct: gene PRKCA
Text: as §1

PKCθ(h) = biological target: T3, PKCθ(h) (Homo sapiens, UniProt Q04759); assay: biochemical; design: In vitro kinase panel profiling, per cent remaining kinase activity at 10 uM; settings: atp_concentration=15, read-out: % of control remaining
T3 construct: gene PRKCQ
Text: as §1

KOR receptor = biological target: T4, KOR receptor (Homo sapiens, UniProt P41145); assay: Eurofins CEREP panel, KOR; assay type: binding; settings: kappa (h) (KOP) (agonist radioligand); test compound concentration 10 uM
T4 construct: purchased Eurofins Cerep (SafetyScreen44), recognised from the panel format

5-HT2A (h) = biological target: T5, 5-HT2A (h) (Homo sapiens, UniProt P28223); assay: In vitro CEREP profiling, 5-HT2A (h) (agonist radioligand); assay type: binding; settings: test compound concentration 10 uM
T5 construct: purchased Eurofins Cerep (SafetyScreen44), recognised from the panel format
Text: (§2) Supplement media-1.zip/Safety_Panel_Profile.csv, table | column: perc_inhibition

COX1(h) = biological target: T6, COX1(h) (Homo sapiens, UniProt P23219); assay: In vitro CEREP profiling, COX1(h); assay type: biochemical; settings: test compound concentration 10 uM; Enzyme and Cell-based assays
T6 construct: purchased Eurofins Cerep (SafetyScreen44), recognised from the panel format
Text: as §2

V1a (h) = biological target: T7, V1a (h) (Homo sapiens, UniProt P37288); assay: In vitro CEREP profiling, V1a (h) (agonist radioligand); assay type: binding; settings: test compound concentration 10 uM
T7 construct: purchased Eurofins Cerep (SafetyScreen44), recognised from the panel format
Text: as §2

D1 (h) = biological target: T8, D1 (h) (Homo sapiens, UniProt P21728); assay: In vitro CEREP profiling, D1 (h) (antagonist radioligand); assay type: binding; settings: test compound 10 uM
T8 construct: purchased Eurofins Cerep (SafetyScreen44), recognised from the panel format
Text: as §2

D2S (h) = biological target: T9, D2S (h) (Homo sapiens, UniProt P14416); assay: In vitro CEREP profiling, D2S (h) (agonist radioligand); assay type: binding; settings: test compound 10 uM
T9 construct: purchased Eurofins Cerep (SafetyScreen44), recognised from the panel format
Text: as §2

NMDA = assay: In vitro CEREP profiling, NMDA (antagonist radioligand); assay type: binding; settings: test compound concentration 10 uM
Text: as §2

dopamine transporter (h) = biological target: T10, dopamine transporter (h) (Homo sapiens, UniProt Q01959); assay: In vitro CEREP profiling, dopamine transporter (h) (antagonist radioligand); assay type: binding; settings: test compound concentration 10 uM
T10 construct: purchased Eurofins Cerep (SafetyScreen44), recognised from the panel format
Text: as §2

NaV1.5 = NaV1.5 (Homo sapiens, UniProt Q14524); assay: In vitro NaV1.5 cardiotoxicity; settings: top test concentration 30 uM
Text: Supplement media-1.zip/Cardiotoxicity.csv, table | column: ic50_rest_state; ic50_use_dep_block; perc_inhibition_rest_state; perc_inhibition_use_dep_block

[1] = NaV1.5, rest state, read-out: ic50_rest_state
[2] = NaV1.5, use dependent block, read-out: ic50_use_dep_block

T6 sequence (P23219 24-599): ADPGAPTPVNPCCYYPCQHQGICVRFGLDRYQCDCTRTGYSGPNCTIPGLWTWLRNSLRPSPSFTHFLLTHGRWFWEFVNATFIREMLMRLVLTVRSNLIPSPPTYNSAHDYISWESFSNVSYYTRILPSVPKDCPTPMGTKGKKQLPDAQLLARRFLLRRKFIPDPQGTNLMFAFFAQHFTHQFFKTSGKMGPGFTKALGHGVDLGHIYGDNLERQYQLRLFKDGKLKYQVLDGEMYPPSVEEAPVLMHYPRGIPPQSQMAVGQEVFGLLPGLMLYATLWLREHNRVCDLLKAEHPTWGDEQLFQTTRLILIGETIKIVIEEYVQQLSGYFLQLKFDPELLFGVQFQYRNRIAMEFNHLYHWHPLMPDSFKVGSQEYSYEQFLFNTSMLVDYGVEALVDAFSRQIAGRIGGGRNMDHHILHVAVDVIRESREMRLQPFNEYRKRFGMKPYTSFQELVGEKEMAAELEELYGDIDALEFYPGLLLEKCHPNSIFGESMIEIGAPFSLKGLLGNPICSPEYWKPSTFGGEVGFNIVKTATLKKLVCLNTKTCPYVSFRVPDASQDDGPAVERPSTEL
T5 sequence (P28223 whole entry): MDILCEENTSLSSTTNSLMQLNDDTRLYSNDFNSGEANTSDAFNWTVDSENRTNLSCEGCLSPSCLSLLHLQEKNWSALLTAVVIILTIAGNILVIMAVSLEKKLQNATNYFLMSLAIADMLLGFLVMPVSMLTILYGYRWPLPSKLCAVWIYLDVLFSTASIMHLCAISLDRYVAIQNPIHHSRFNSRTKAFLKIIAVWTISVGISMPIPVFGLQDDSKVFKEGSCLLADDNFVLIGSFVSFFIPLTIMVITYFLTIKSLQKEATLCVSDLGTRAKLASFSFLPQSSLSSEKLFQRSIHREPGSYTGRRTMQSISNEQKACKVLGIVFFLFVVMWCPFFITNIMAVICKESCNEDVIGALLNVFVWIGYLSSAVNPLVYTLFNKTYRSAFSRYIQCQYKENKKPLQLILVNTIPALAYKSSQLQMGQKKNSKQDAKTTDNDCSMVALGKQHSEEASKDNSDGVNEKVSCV
T8 sequence (P21728 whole entry): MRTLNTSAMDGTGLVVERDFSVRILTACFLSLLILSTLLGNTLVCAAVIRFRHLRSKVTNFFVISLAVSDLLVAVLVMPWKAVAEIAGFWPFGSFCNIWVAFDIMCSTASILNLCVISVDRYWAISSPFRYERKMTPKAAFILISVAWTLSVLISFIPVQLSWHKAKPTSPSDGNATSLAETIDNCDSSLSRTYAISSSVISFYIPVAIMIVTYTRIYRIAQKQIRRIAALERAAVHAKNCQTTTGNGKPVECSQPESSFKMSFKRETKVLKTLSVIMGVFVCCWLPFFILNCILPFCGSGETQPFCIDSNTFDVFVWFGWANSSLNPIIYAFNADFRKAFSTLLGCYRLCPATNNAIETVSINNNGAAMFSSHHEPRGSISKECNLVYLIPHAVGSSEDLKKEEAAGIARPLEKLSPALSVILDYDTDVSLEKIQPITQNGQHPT
T3 sequence (Q04759 whole entry): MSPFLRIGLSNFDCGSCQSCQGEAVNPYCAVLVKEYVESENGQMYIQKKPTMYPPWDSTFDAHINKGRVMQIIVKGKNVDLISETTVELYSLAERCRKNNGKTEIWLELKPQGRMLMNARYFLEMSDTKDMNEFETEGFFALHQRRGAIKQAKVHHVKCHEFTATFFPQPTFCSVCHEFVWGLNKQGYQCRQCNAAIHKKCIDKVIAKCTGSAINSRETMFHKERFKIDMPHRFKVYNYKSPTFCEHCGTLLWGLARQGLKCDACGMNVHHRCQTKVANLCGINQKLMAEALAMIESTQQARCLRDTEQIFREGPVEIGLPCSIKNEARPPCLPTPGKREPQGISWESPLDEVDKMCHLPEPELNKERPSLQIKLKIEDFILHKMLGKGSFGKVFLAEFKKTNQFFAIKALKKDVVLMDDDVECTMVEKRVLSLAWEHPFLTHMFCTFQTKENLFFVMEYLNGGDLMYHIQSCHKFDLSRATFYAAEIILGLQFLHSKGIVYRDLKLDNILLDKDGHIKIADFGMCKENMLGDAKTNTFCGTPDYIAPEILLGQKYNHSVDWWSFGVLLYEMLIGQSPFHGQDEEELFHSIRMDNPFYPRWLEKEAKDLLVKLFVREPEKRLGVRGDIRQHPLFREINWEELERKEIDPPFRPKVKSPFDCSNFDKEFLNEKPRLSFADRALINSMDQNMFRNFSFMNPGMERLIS
T9 sequence (P14416 1-414 isoform P14416-2): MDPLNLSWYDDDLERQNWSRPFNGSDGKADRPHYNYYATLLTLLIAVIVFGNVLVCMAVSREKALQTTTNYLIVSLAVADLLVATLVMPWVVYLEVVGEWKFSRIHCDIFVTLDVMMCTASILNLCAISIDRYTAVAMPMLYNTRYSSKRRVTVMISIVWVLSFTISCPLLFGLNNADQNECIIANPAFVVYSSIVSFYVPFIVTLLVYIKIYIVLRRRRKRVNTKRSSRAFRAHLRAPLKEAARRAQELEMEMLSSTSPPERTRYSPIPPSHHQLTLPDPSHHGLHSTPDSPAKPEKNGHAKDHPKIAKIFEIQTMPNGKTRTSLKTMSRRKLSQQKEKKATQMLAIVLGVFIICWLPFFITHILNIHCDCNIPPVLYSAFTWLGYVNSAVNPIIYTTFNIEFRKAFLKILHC
T7 sequence (P37288 whole entry): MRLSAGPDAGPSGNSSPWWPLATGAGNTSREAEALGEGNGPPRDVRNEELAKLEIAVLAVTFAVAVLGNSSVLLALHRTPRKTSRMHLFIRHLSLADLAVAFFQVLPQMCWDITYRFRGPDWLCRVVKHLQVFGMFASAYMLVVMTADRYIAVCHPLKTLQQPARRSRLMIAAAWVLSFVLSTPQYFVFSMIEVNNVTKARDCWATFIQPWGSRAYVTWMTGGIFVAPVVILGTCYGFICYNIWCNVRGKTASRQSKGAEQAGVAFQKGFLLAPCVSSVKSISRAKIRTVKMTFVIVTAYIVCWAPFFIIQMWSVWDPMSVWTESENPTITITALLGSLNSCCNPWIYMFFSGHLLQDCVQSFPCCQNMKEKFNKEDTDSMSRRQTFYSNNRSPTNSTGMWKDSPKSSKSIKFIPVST
T10 sequence (Q01959 whole entry): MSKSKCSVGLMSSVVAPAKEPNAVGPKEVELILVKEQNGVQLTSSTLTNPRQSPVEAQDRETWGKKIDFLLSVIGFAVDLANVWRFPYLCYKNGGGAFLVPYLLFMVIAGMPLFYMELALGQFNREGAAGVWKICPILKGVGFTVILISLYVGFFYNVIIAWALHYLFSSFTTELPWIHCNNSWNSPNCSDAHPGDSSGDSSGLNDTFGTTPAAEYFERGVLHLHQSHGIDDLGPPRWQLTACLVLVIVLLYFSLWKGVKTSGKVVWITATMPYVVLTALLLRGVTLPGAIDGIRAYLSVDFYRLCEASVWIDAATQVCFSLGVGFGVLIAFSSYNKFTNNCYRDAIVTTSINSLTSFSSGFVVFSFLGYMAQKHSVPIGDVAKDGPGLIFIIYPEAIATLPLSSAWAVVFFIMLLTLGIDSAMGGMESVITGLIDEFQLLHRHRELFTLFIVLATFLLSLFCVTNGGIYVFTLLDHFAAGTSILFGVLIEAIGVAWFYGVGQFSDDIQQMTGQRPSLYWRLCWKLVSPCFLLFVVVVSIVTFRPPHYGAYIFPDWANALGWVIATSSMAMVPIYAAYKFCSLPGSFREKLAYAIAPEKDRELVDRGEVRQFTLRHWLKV
T4 sequence (P41145 whole entry): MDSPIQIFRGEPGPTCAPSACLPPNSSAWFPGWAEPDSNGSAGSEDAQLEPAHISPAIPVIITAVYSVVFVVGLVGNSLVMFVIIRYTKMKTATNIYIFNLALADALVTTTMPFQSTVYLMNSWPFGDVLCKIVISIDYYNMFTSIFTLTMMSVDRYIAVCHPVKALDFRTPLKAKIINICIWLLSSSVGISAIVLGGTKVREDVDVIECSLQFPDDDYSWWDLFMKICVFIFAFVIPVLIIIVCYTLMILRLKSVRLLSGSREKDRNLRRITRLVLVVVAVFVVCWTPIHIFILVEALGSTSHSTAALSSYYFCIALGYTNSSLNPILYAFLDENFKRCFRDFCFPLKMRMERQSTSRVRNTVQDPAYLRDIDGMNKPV

Structure (SMILES)	perc_inhibition (% inhibition of the binding of a ligand specific for each target) (KOR receptor) [%]	perc_inhibition (% inhibition of the binding of a ligand specific for each target) (5-HT2A (h)) [%]	perc_inhibition: % inhibition of control enzyme activity, COX1(h) (COX1(h)) [%]	perc_inhibition (% inhibition of the binding of a ligand specific for each target) (V1a (h)) [%]	perc_inhibition (% inhibition of the binding of a ligand specific for each target) (D1 (h)) [%]	perc_inhibition (% inhibition of the binding of a ligand specific for each target) (D2S (h)) [%]	perc_inhibition (% inhibition of the binding of a ligand specific for each target) (NMDA) [%]	perc_inhibition (% inhibition of the binding of a ligand specific for each target) (dopamine transporter (h)) [%]	perc_inhibition_rest_state (NaV1.5; NaV1.5, rest state) [%]	IC50 (NaV1.5; [1]) [µM]	perc_inhibition_use_dep_block (NaV1.5; NaV1.5, use dependent block) [%]	IC50 (NaV1.5; [2]) [µM]	also measured
CC(C)C(Nc1ncnc2[nH]ccc12)c1ccc2c(c1)S(=O)(=O)CCC2 (stereo not shown) [ASAP-0008327]													remaining activity at 10 µM (ASK1(h); batch_name=ASAP-0008327-001): 108%; remaining activity at 10 µM (CDK6/cyclinD3(h); batch_name=ASAP-0008327-001): 99%; remaining activity at 10 µM (PKCα(h); batch_name=ASAP-0008327-001): 104%; remaining activity at 10 µM (PKCθ(h); batch_name=ASAP-0008327-001): 101%
COc1ccc([C@@H](Cc2nnn[nH]2)NC(=O)c2ncnc3[nH]ccc23)cc1 [ASAP-0008340]													remaining activity at 10 µM (ASK1(h); batch_name=ASAP-0008340-001): 101%; remaining activity at 10 µM (CDK6/cyclinD3(h); batch_name=ASAP-0008340-001): 100%; remaining activity at 10 µM (PKCα(h); batch_name=ASAP-0008340-001): 95%; remaining activity at 10 µM (PKCθ(h); batch_name=ASAP-0008340-001): 90%
CC(C)[C@@H](Nc1ncnc2[nH]c(-c3cnn(C)c3C#N)cc12)c1ccc2c(n1)OCCO2 [ASAP-0008418]													remaining activity at 10 µM (CDK6/cyclinD3(h); batch_name=ASAP-0008418-001): 105%; remaining activity at 10 µM (PKCα(h); batch_name=ASAP-0008418-001): 90%; remaining activity at 10 µM (PKCθ(h); batch_name=ASAP-0008418-001): 93%
CC(C)[C@H](Nc1ncnc2[nH]c(-c3cnn(C)c3C#N)cc12)c1ccc2c(n1)OCCO2 [ASAP-0010715]	31	15	-39	27	27	-7	2	29	33.0	> 30	35.0	> 30	remaining activity at 10 µM (ASK1(h); batch_name=ASAP-0010715-002): 106%; remaining activity at 10 µM (CDK6/cyclinD3(h); batch_name=ASAP-0010715-002): 102%
CC(C)[C@@H](Nc1ncnc2[nH]c(-c3cnn(C)c3C#N)cc12)c1ccc2c(n1)OCCO2 [ASAP-0010716]	56	14	-34	20	10	3	1	30	27.0	> 30	25.0	> 30	remaining activity at 10 µM (ASK1(h); batch_name=ASAP-0010716-002): 108%; remaining activity at 10 µM (PKCα(h); batch_name=ASAP-0010716-002): 99%; remaining activity at 10 µM (PKCθ(h); batch_name=ASAP-0010716-002): 111%
CNCc1cc(-c2cc3c(N[C@@H](c4ccc5c(c4)S(=O)(=O)CCC5)C(C)C)ncnc3[nH]2)co1 [ASAP-0011176]	57	29	-6	13	14	-9	-1	50	10.0	> 30	16.0	> 30	remaining activity at 10 µM (CDK6/cyclinD3(h); batch_name=ASAP-0011176-002): 92%; remaining activity at 10 µM (PKCα(h); batch_name=ASAP-0011176-002): 99%; remaining activity at 10 µM (PKCθ(h); batch_name=ASAP-0011176-002): 106%
Cn1ncc(-c2cc3c(N[C@@H](c4ccc5c(n4)OCCO5)C(C)(C)C)ncnc3[nH]2)c1C#N [ASAP-0011221]	33	-2	-14	57	9	13	11	50	17.0	> 30	21.0	> 30	remaining activity at 10 µM (ASK1(h); batch_name=ASAP-0011221-002): 108%; remaining activity at 10 µM (PKCα(h); batch_name=ASAP-0011221-002): 87%; remaining activity at 10 µM (PKCθ(h); batch_name=ASAP-0011221-002): 96%
